# Measurements published in PubChem BioAssay AID1963980 (Molecular Pharmacology Branch, DTP, NCI, 2024).
# Tested on: 475296-252-R-J1-PDC spheroid viability
# Experiment: Anticancer human tumor 475296-252-R-J1-PDC patient-derived rectal carcinoma cell line growth inhibition [PI3K]
# Conditions: spheroids with HUVEC and MSC; for IC50: curve of first compound; for viability, T/C: stronger effect = lower value
# In short: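 Stroma-containing spheroids: tumor line, pooled-donor HUVEC, hMSC. Treatments: targeted agents with PI3K inhibitors. Dosing: clinically relevant, half-log spacing, 10 microM ceiling without known Cmax. Read-out: cell viability.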
# [1] = second compound 0.0316 µM, first compound 0.0316 µM
# [2] = second compound 0.0316 µM, first compound 0.1 µM
# [3] = second compound 0.0316 µM, first compound 0.316 µM
# [4] = second compound 0.0316 µM, first compound 1 µM
# [5] = second compound 0.0316 µM, first compound 3.16 µM
# [6] = second compound 0.0316 µM, first compound 10 µM
# [7] = second compound 0.1 µM, first compound 0.0316 µM
# [8] = second compound 0.1 µM, first compound 0.1 µM
# [9] = second compound 0.1 µM, first compound 0.316 µM
# [10] = second compound 0.1 µM, first compound 1 µM
# [11] = second compound 0.1 µM, first compound 3.16 µM
# [12] = second compound 0.1 µM, first compound 10 µM
# [13] = second compound 0.316 µM, first compound 0.0316 µM
# [14] = second compound 0.316 µM, first compound 0.1 µM
# [15] = second compound 0.316 µM, first compound 0.316 µM
# [16] = second compound 0.316 µM, first compound 1 µM
# [17] = second compound 0.316 µM, first compound 3.16 µM
# [18] = second compound 0.316 µM, first compound 10 µM
# [19] = second compound 1 µM, first compound 0.0316 µM
# [20] = second compound 1 µM, first compound 0.1 µM
# [21] = second compound 1 µM, first compound 0.316 µM
# [22] = second compound 1 µM, first compound 1 µM
# [23] = second compound 1 µM, first compound 3.16 µM
# [24] = second compound 1 µM, first compound 10 µM
# [25] = second compound 3.16 µM, first compound 0.0316 µM
# [26] = second compound 3.16 µM, first compound 0.1 µM
# [27] = second compound 3.16 µM, first compound 0.316 µM
# [28] = second compound 3.16 µM, first compound 1 µM
# [29] = second compound 3.16 µM, first compound 3.16 µM
# [30] = second compound 3.16 µM, first compound 10 µM
# [31] = second compound 10 µM, first compound 0.0316 µM
# [32] = second compound 10 µM, first compound 0.1 µM
# [33] = second compound 10 µM, first compound 0.316 µM
# [34] = second compound 10 µM, first compound 1 µM
# [35] = second compound 10 µM, first compound 3.16 µM
# [36] = second compound 10 µM, first compound 10 µM
# [37] = second compound 0.0316 µM, first compound 0.00316 µM
# [38] = second compound 0.0316 µM, first compound 0.01 µM
# [39] = second compound 0.1 µM, first compound 0.00316 µM
# [40] = second compound 0.1 µM, first compound 0.01 µM
# [41] = second compound 0.316 µM, first compound 0.00316 µM
# [42] = second compound 0.316 µM, first compound 0.01 µM
# [43] = second compound 1 µM, first compound 0.00316 µM
# [44] = second compound 1 µM, first compound 0.01 µM
# [45] = second compound 3.16 µM, first compound 0.00316 µM
# [46] = second compound 3.16 µM, first compound 0.01 µM
# [47] = second compound 10 µM, first compound 0.00316 µM
# [48] = second compound 10 µM, first compound 0.01 µM
# 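Note: spheroids exposed to agents for seven days before readout.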
smiles,measurement,setting,value
CC(C)NCC(C(=O)N1CCN(c2ncnc3c2C(C)CC3O)CC1)c1ccc(Cl)cc1 (stereo not drawn) + Cc1nc(NC(=O)N2CCCC2C(N)=O)sc1-c1ccnc(C(C)(C)C(F)(F)F)c1,IC50,second compound 0.0316 µM,> 10 µM
same,IC50,second compound 0.1 µM,> 10 µM
same,IC50,second compound 0.316 µM,> 10 µM
same,IC50,second compound 1 µM,> 10 µM
same,IC50,second compound 3.16 µM,> 10 µM
same,IC50,second compound 10 µM,> 10 µM
same,"viability, T/C",[1],98%
same,"viability, T/C",[2],90.3%
same,"viability, T/C",[3],92%
same,"viability, T/C",[4],89.3%
same,"viability, T/C",[5],78.9%
same,"viability, T/C",[6],70.3%
same,"viability, T/C",[7],89.4%
same,"viability, T/C",[8],93.3%
same,"viability, T/C",[9],92.7%
same,"viability, T/C",[10],80.3%
same,"viability, T/C",[11],62.4%
same,"viability, T/C",[12],58.2%
same,"viability, T/C",[13],93.2%
same,"viability, T/C",[14],95.1%
same,"viability, T/C",[15],88.3%
same,"viability, T/C",[16],92.5%
same,"viability, T/C",[17],68.3%
same,"viability, T/C",[18],58.9%
same,"viability, T/C",[19],85%
same,"viability, T/C",[20],92.7%
same,"viability, T/C",[21],88.2%
same,"viability, T/C",[22],90%
same,"viability, T/C",[23],81.3%
same,"viability, T/C",[24],58.7%
same,"viability, T/C",[25],82.5%
same,"viability, T/C",[26],96.6%
same,"viability, T/C",[27],88.8%
same,"viability, T/C",[28],89.4%
same,"viability, T/C",[29],77.7%
same,"viability, T/C",[30],65.8%
same,"viability, T/C",[31],96%
same,"viability, T/C",[32],81.3%
same,"viability, T/C",[33],89.3%
same,"viability, T/C",[34],85%
same,"viability, T/C",[35],77.2%
same,"viability, T/C",[36],64.3%
CCN1CCN(Cc2ccc(Nc3ncc(F)c(-c4cc(F)c5nc(C)n(C(C)C)c5c4)n3)nc2)CC1 + Cc1nc(NC(=O)N2CCCC2C(N)=O)sc1-c1ccnc(C(C)(C)C(F)(F)F)c1,IC50,second compound 0.0316 µM,> 1 µM
same,IC50,second compound 0.1 µM,> 1 µM
same,IC50,second compound 0.316 µM,> 1 µM
same,IC50,second compound 1 µM,> 1 µM
same,IC50,second compound 3.16 µM,> 1 µM
same,IC50,second compound 10 µM,> 1 µM
same,"viability, T/C",[37],95.8%
same,"viability, T/C",[38],93.4%
same,"viability, T/C",[1],107%
same,"viability, T/C",[2],90%
same,"viability, T/C",[3],114%
same,"viability, T/C",[4],104%
same,"viability, T/C",[39],95.8%
same,"viability, T/C",[40],97.8%
same,"viability, T/C",[7],112%
same,"viability, T/C",[8],90.4%
same,"viability, T/C",[9],98.8%
same,"viability, T/C",[10],84.3%
same,"viability, T/C",[41],107%
same,"viability, T/C",[42],105%
same,"viability, T/C",[13],87.6%
same,"viability, T/C",[14],99.4%
same,"viability, T/C",[15],98%
same,"viability, T/C",[16],88.6%
same,"viability, T/C",[43],81.4%
same,"viability, T/C",[44],90.5%
same,"viability, T/C",[19],98.7%
same,"viability, T/C",[20],88.5%
same,"viability, T/C",[21],89.2%
same,"viability, T/C",[22],87.7%
same,"viability, T/C",[45],98.2%
same,"viability, T/C",[46],108%
same,"viability, T/C",[25],82.5%
same,"viability, T/C",[26],95%
same,"viability, T/C",[27],90.7%
same,"viability, T/C",[28],73.1%
same,"viability, T/C",[47],93.3%
same,"viability, T/C",[48],88.3%
same,"viability, T/C",[31],96.7%
same,"viability, T/C",[32],81.1%
same,"viability, T/C",[33],90.4%
same,"viability, T/C",[34],70.4%
C[C@@H](NC(=O)c1ncnc(N)c1Cl)c1ncc(C(=O)Nc2cc(C(F)(F)F)c(Cl)cn2)s1 + Cc1nc(NC(=O)N2CCCC2C(N)=O)sc1-c1ccnc(C(C)(C)C(F)(F)F)c1,IC50,second compound 0.0316 µM,> 10 µM
same,IC50,second compound 0.1 µM,> 10 µM
same,IC50,second compound 0.316 µM,> 10 µM
same,IC50,second compound 1 µM,> 10 µM
same,IC50,second compound 3.16 µM,> 10 µM
same,IC50,second compound 10 µM,7.71 µM
same,"viability, T/C",[1],97.3%
same,"viability, T/C",[2],82.2%
same,"viability, T/C",[3],98.4%
same,"viability, T/C",[4],97.1%
same,"viability, T/C",[5],104%
same,"viability, T/C",[6],84.1%
same,"viability, T/C",[7],88.8%
same,"viability, T/C",[8],85.3%
same,"viability, T/C",[9],109%
same,"viability, T/C",[10],91.7%
same,"viability, T/C",[11],100%
same,"viability, T/C",[12],95.4%
same,"viability, T/C",[13],87.7%
same,"viability, T/C",[14],90.5%
same,"viability, T/C",[15],97%
same,"viability, T/C",[16],98.9%
same,"viability, T/C",[17],95.6%
same,"viability, T/C",[18],79.9%
same,"viability, T/C",[19],82.6%
same,"viability, T/C",[20],93.7%
same,"viability, T/C",[21],101%
same,"viability, T/C",[22],101%
same,"viability, T/C",[23],84.9%
same,"viability, T/C",[24],63%
same,"viability, T/C",[25],86.2%
same,"viability, T/C",[26],79.4%
same,"viability, T/C",[27],93.4%
same,"viability, T/C",[28],75.9%
same,"viability, T/C",[29],79.6%
same,"viability, T/C",[30],70.5%
same,"viability, T/C",[31],86.6%
same,"viability, T/C",[32],77%
same,"viability, T/C",[33],79.5%
same,"viability, T/C",[34],69.1%
same,"viability, T/C",[35],66.8%
same,"viability, T/C",[36],45%
Cn1ncnc1[C@H]1c2n[nH]c(=O)c3cc(F)cc(c23)N[C@@H]1c1ccc(F)cc1 + Cc1nc(NC(=O)N2CCCC2C(N)=O)sc1-c1ccnc(C(C)(C)C(F)(F)F)c1,IC50,second compound 0.0316 µM,> 0.1 µM
same,IC50,second compound 0.1 µM,> 0.1 µM
same,IC50,second compound 0.316 µM,> 0.1 µM
same,IC50,second compound 1 µM,> 0.1 µM
same,IC50,second compound 3.16 µM,> 0.1 µM
same,IC50,second compound 10 µM,> 0.1 µM
same,"viability, T/C","second compound 0.0316 µM, first compound 0.000316 µM",104%
same,"viability, T/C","second compound 0.0316 µM, first compound 0.001 µM",88.4%
same,"viability, T/C",[37],106%
same,"viability, T/C",[38],87.1%
same,"viability, T/C",[1],98.8%
same,"viability, T/C",[2],101%
same,"viability, T/C","second compound 0.1 µM, first compound 0.000316 µM",92%
same,"viability, T/C","second compound 0.1 µM, first compound 0.001 µM",87.1%
same,"viability, T/C",[39],94.7%
same,"viability, T/C",[40],101%
same,"viability, T/C",[7],110%
same,"viability, T/C",[8],103%
same,"viability, T/C","second compound 0.316 µM, first compound 0.000316 µM",89.7%
same,"viability, T/C","second compound 0.316 µM, first compound 0.001 µM",92.4%
same,"viability, T/C",[41],88.9%
same,"viability, T/C",[42],99.6%
same,"viability, T/C",[13],105%
same,"viability, T/C",[14],90.8%
same,"viability, T/C","second compound 1 µM, first compound 0.000316 µM",91.3%
same,"viability, T/C","second compound 1 µM, first compound 0.001 µM",99.5%
same,"viability, T/C",[43],101%
same,"viability, T/C",[44],91.7%
same,"viability, T/C",[19],92.6%
same,"viability, T/C",[20],104%
same,"viability, T/C","second compound 3.16 µM, first compound 0.000316 µM",85.8%
same,"viability, T/C","second compound 3.16 µM, first compound 0.001 µM",90%
same,"viability, T/C",[45],91.5%
same,"viability, T/C",[46],87.7%
same,"viability, T/C",[25],87.7%
same,"viability, T/C",[26],88.6%
same,"viability, T/C","second compound 10 µM, first compound 0.000316 µM",91.7%
same,"viability, T/C","second compound 10 µM, first compound 0.001 µM",92.1%
same,"viability, T/C",[47],84.7%
same,"viability, T/C",[48],83.3%
same,"viability, T/C",[31],91.3%
same,"viability, T/C",[32],84.6%
